What was measured:
LRRK2 wild type enzyme = LRRK2 wild type enzyme (Homo sapiens, UniProt Q5S007); assay: Biochemical Assay: LRRK2 TR-FRET (LanthaScreen) kinase assay with LRRKtide substrate; conditions: LRRK2 Inhibition, Table 8
Experimental: 10 mM compound solution was prepared in DMSO. An 11-point, 3-fold dilution was performed, with highest concentration at 10 μM. A 10 mM compound DMSO solution was added to Labcyte LDV plate and the compound concentration of source plate was 10 mM. The 1st compound concentration of Inter plate(Labcyte 384 well PP plate) was 4.938×10^−1 mM which was prepared by transferring 1.5 μL of 10 mM compound from source plate to 28.9 μL DMSO. The 2nd compound concentration of Inter plate was 1.829×10^−2 mM which was prepared by transferring 60 nL of 10 mM compound from source plate to 32.7 μL DMSO. The 3rd compound concentration of Inter plate was 6.774×10^−4 mM which was prepared by transferring 2.5 nL of 10 mM compound from source plate to 36.9 μL DMSO. 100 nL of reference compound was dispensed in column 1 for low control wells and 100 nL of DMSO in column 24 for high control wells. Compounds were dispensed to column 2 to 23 of assay plate and backfilled with DMSO to a total volume of 100 nL.
A 2X LRRK2 enzyme solution (final concentration 3 nM) was prepared in assay buffer (Tris-HCl pH8.0:50 mM, MgCl2: 5 mM, EDTA: 1 mM, Brij-35:0.01%, 2 mM DTT). A 2× substrate solution was prepared: LRRK2 tide substrate (final concentration 400 nM) and ATP (final concentration 25 μM) in assay buffer. 5 μL 2× LRRK2 enzyme solution was dispensed to each well in assay plate by Multidrop. Assay plate was spun at 1,000 rpm for 1 min and incubated for 15 min at 23° C. 5 μL 2× ATP/LRRKtide solution was dispensed to each well in assay plate by Multidrop. Assay plate was spun at 1,000 rpm for 1 min and incubated for 120 min at 23° C.
(§1) A 2× detection solution was prepared: Tb-pERM (pLRRKtide) antibody (final concentration 0.25 nM) and EDTA (final concentration 10 mM) in TR-FRET dilution buffer. 10 μL 2× detection solution was dispensed to each well in assay plate to stop kinase reaction by Multidrop. Assay plate was spun at 1,000 rpm for 1 min and incubate for 30 min at 23° C. Assay plate was then read on Envision configured for LanthaScreen® TR-FRET. pS935 LRRK2 Cell Assay

[1] = molecular target: T1, wild type LRRK2 overexpressed in recombinant HEK-293T cells (Homo sapiens, UniProt Q5S007); assay: pS935 LRRK2 Cell Assay (HTRF, phospho-LRRK2 Ser935); type: cell-based; conditions: LRRK2 Inhibition, Table 8, 2 hours compound incubation
T1 construct: host or cells: HEK293T (transient transfection with pCMV-LRRK2 WT plasmid)
T1 sequence (Q5S007 whole entry): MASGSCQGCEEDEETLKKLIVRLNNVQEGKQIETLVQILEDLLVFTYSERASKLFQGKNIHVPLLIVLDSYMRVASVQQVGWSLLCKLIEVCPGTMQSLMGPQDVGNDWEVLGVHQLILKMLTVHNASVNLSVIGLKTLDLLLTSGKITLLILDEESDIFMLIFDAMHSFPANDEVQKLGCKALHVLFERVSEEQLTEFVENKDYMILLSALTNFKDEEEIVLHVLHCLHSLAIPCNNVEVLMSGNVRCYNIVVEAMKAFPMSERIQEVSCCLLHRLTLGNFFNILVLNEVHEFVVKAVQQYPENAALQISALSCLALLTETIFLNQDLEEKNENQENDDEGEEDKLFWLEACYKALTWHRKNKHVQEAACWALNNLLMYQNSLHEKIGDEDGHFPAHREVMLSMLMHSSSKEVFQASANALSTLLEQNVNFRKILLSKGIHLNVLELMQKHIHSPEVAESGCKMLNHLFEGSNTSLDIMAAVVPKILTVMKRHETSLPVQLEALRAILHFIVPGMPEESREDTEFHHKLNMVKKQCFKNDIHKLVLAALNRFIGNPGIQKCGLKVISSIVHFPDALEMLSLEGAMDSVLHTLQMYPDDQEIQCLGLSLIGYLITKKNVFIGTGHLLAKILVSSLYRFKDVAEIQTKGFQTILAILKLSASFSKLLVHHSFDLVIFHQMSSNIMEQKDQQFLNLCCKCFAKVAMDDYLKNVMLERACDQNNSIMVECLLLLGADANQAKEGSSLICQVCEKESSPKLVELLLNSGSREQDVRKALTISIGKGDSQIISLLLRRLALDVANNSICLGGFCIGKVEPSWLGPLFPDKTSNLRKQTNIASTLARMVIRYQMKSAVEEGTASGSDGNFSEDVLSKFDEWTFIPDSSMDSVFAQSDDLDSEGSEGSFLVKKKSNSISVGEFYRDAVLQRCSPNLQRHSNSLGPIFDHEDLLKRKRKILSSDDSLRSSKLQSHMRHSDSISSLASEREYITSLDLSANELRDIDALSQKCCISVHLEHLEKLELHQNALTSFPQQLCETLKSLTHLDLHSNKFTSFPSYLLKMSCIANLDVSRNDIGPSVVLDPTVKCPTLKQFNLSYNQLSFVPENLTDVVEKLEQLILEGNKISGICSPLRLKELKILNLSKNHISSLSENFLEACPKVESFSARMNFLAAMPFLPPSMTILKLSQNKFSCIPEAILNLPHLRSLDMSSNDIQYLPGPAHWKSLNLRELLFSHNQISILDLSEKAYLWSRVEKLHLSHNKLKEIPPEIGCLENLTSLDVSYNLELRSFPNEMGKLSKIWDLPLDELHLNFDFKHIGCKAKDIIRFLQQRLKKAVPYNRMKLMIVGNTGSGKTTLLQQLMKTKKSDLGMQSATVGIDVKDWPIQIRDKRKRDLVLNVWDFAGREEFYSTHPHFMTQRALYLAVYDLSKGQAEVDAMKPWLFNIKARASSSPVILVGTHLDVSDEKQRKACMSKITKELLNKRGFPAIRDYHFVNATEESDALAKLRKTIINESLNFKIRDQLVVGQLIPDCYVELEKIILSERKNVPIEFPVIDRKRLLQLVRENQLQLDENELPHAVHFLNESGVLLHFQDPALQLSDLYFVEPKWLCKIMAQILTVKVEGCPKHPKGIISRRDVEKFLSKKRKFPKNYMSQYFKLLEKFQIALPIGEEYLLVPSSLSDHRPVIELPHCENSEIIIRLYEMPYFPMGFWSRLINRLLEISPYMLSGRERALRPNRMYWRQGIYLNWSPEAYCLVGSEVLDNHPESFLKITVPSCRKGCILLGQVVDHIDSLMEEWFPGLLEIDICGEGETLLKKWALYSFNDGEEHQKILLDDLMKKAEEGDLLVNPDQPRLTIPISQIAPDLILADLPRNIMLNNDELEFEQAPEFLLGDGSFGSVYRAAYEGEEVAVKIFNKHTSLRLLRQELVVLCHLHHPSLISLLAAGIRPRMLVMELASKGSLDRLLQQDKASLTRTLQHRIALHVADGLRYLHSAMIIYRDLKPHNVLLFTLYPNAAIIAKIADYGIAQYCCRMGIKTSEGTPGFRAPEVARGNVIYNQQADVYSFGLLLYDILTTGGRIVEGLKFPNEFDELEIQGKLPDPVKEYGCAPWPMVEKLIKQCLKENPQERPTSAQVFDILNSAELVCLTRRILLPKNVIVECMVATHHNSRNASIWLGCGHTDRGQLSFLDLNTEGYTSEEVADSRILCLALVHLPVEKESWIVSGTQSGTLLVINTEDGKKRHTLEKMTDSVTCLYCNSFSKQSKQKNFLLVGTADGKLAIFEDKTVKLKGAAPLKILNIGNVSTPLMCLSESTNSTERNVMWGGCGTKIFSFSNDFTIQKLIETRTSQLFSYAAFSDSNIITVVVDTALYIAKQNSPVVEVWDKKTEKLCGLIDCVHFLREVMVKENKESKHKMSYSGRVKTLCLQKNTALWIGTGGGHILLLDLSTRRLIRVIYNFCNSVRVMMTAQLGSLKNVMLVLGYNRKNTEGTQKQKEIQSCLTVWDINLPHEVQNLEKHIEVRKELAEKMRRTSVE
Experimental: as §1
The following protocol describes an in-vitro method for measuring phosphorylation at Ser935 on wild type LRRK2 overexpressed in recombinant HEK-293T cells. The method is based on HTRF technology, which combines Fluorescence Resonance Energy Transfer (FRET) with Time-Resolved measurement (TR). Phospho-LRRK2 (Ser935) is detected in a sandwich assay format using two different specific antibodies, one labelled with Eu3+-Cryptate (donor) and the second with d2(acceptor).When the fluorophores are in close proximity, excitation of the donor with a light source (flash lamp) stimulates FRET to the acceptor, which in turn fluoresces at a specific wavelength (665 nm). The fluorescence emission at 615 nm from the donor is also measured to allow ratiometric reduction of data. The specific signal is proportional to phospho-LRRK2 (Ser935).
Plasmid transient transfection: DMEM medium, FBS, DPBS, Trans-IT, OPTI-MEM reagents were allowed to warm to room temperature. HEK293T cells were cultured in DMEM +10% FBS complete medium in T150 flasks till around 80% confluency before transfection. Then cells were washed with 10 mL PBS and detached with 3 mL 0.25% typinsin. 30×10E6 HEK293T cells were seeded in DMEM +10% FBS complete medium to a 15 cm dish.
DNA, TransIT-LT1, OPTI-MEM complex were prepared: […] OPTI-MEM was added to a 15 mL cone tube, then […] plasmid was added to OPTI-MEM and mixed, followed by addition of 60 μL TransIT-LT1 to the plasmid OPTI-MEM mixture and mixing. The resulting mixture was incubated for 15 minutes.
The above plasmid, DNA and OPTI-MEM mixture was added dropwise to the 15 cm dish, ensuring the drops were evenly distributed. The culture dish was gently rocked back and forth and from left to right to evenly distribute the complex. The tranfected dish was incubated for 24 hours at 37° C., and 5% CO2.
Transfected HEK293T was collected in the 15 cm dish. Media was aspirated from tissue culture dish, and washed by dispensing 10 mL 1× DPBS into 15 cm dish. 1× DPBS was aspirated and 3 mL trypsin was dispensed to 15 cm dish. The dish was incubated with trypsin at room temperature for 3 min until the cells were detached. 10 mL of DMEM +10% FBS medium were added to 15 cm dish and triturated to ensure homogenous cell suspensions.
Homogenous cell suspensions were transferred to a 50 mL tube, and centrifuged for 5 minutes at 1,000 rmp/min. The supernatant was aspirated and resuspended with 20 mL complete medium. 1 mL of cell suspension was transferred for cell counting. The cell suspension was diluted to 2× 10E5 cells/ml. 50 μL cell suspensions were added to a 384-well plate. The plate was quick spun at 800 rpm for 1 minute, then incubate overnight at 37° C., 5% CO2.
Compound dispensing: compound was diluted (10 mM DMSO stock solution) and added to assay plate (top concentration: 10 μM, 3 fold serial dilution, 9 doses) with duplicates by Tecan liquid handler. The DMSO concentration of each well was normalized to 0.2%. Plates were quick spun at 1,000 rpm for 1 minute. Plates were incubated at 37° C., 5% CO2 for 2 hours.
1× lysis buffer solution supplemented with blocking reagent was prepared (e.g. 1 mL lysis buffer 4X+3 mL water+40 μL stock blocking reagent 100X). Antibodies working solution was prepared by diluting 40-fold d2 and Cryptate antibodies with detection buffer(e.g. 1520 μL detection buffer+40 μL d2-antibody stock solution+[…] Cryptate-antibody stock solution).
After 2 hours incubation, cell plates were taken out from the incubator. […]

LRRK2 wild type enzyme, sequence (Q5S007 whole entry): as above

Work on `C[C@@H]1C[C@H](n2c(CC(=O)NCCCO)nc3cnc4ccc(C#N)cc4c32)CCO1` [Compound 181, 2-{8-cyano-1-[(2R,4R)-2-methyloxan-4-yl]-1H-imidazo[4,5-c]quinolin-2-yl}-N-(3-hydroxypropyl)acetamide] yielded an IC50 (LRRK2 wild type enzyme) of 0.578 nM and an IC50 [1] of 376 nM.
In the case of `C[C@@H]1C[C@H](n2c(CC(=O)NC3CCOc4cccnc43)nc3cnc4ccc(Cl)cc4c32)CCO1` (stereo partly drawn) [Compound 362, N-(3,4-dihydro-2H-1-oxa-5-azanaphth-4-yl){3-[(2R,4R)-2-methyltetrahydro-2H-pyran-4-yl]-12-chloro-3,5,8-triazatricyclo[7.4.0.0^2,6]trideca-1(9),2(6),4,7,10,12-hexaen-4-yl}acetamide], the IC50 (LRRK2 wild type enzyme) is reported as 0.553 nM and the IC50 [1] is reported as 10.5 nM.
In the case of `C[C@@H]1C[C@H](n2c(CC(=O)Nc3cc(C(F)(F)F)no3)nc3cnc4ccc(C#N)cc4c32)CCO1` [Compound 342, N-[3-(trifluoromethyl)-5-isoxazolyl]{3-[(2R,4R)-2-methyltetrahydro-2H-pyran-4-yl]-12-cyano-3,5,8-triazatricyclo[7.4.0.0^2,6]trideca-1(9),2(6),4,7,10,12-hexaen-4-yl}acetamide], the IC50 (LRRK2 wild type enzyme) is reported as 2.17 nM and the IC50 [1] is reported as 75.1 nM.
`C[C@@H]1C[C@H](n2c(C3CC(=O)N(c4cnn(CCO)c4)C3)nc3cnc4ccc(C#N)cc4c32)CCO1` (stereo partly drawn) [Compound 123, 2-{1-[1-(2-hydroxyethyl)-1H-pyrazol-4-yl]-5-oxopyrrolidin-3-yl}-1-[(2R,4R)-2-methyloxan-4-yl]-1H-imidazo[4,5-c]quinoline-8-carbonitrile] gave an IC50 (LRRK2 wild type enzyme) of 1.41 nM and an IC50 [1] of 4050 nM.
With `CC1CC(n2c(CC3CNC3)nc3cnc4ccc(C#N)cc4c32)CCO1` (stereo not shown) [Compound 70, 2-[(azetidin-3-yl)methyl]-1-(2-methyloxan-4-yl)-1H-imidazo[4,5-c]quinoline-8-carbonitrile] the IC50 (LRRK2 wild type enzyme) was 9.07 nM and the IC50 [1] was 3680 nM.
`C[C@@H]1C[C@H](n2c(CC(=O)Nc3ccn(C)n3)nc3cnc4ccc(C#N)cc4c32)CCO1` [Compound 188, 2-{8-cyano-1-[(2R,4R)-2-methyloxan-4-yl]-1H-imidazo[4,5-c]quinolin-2-yl}-N-(1-methyl-1H-pyrazol-3-yl)acetamide] gave an IC50 (LRRK2 wild type enzyme) of 0.321 nM and an IC50 [1] of 7.58 nM.
`C[C@@H]1C[C@H](n2c(CNS(=O)(=O)C3CC3)nc3cnc4ccc(C#N)cc4c32)CCO1` [Compound 22, N-({8-cyano-1-[(2R,4R)-2-methyloxan-4-yl]-1H-imidazo[4,5-c]quinolin-2-yl}methyl)cyclopropanesulfonamide] showed an IC50 (LRRK2 wild type enzyme) of 6.8 nM and an IC50 [1] of 536 nM.
Compound `C[C@@H]1C[C@H](n2c(CC(=O)Nc3cccnc3CO)nc3cnc4ccc(C#N)cc4c32)CCO1` [Compound 283, N-[2-(hydroxymethyl)-3-pyridyl]{3-[(2R,4R)-2-methyltetrahydro-2H-pyran-4-yl]-12-cyano-3,5,8-triazatricyclo[7.4.0.0^2,6]trideca-1,4,6,8,10,12-hexaen-4-yl}acetamide] has an IC50 (LRRK2 wild type enzyme) of 0.572 nM and an IC50 [1] of 27.3 nM.
For `C[C@@H]1C[C@H](n2c(CN3CCC(C(=O)O)CC3)nc3cnc4ccc(C#N)cc4c32)CCO1` [Compound 76, 1-({8-cyano-1-[(2R,4R)-2-methyloxan-4-yl]-1H-imidazo[4,5-c]quinolin-2-yl}methyl)piperidine-4-carboxylic acid], the IC50 (LRRK2 wild type enzyme) was 109 nM.
`C[C@@H]1C[C@H](n2c([C@@H]3CCN(S(=O)(=O)c4cnn(C)c4)C3)nc3cnc4ccc(C#N)cc4c32)CCO1` [Compound 128, 2-[(3R)-1-[(1-methyl-1H-pyrazol-4-yl)sulfonyl]pyrrolidin-3-yl]-1-[(2R,4R)-2-methyloxan-4-yl]-1H-imidazo[4,5-c]quinoline-8-carbonitrile] gave an IC50 (LRRK2 wild type enzyme) of 10 nM.
With `C[C@@H]1C[C@H](n2c([C@@H]3CCN(C(=O)c4cccnn4)C3)nc3cnc4ccc(C#N)cc4c32)CCO1` [Compound 129, 1-[(2R,4R)-2-methyloxan-4-yl]-2-[(3R)-1-(pyridazine-3-carbonyl)pyrrolidin-3-yl]-1H-imidazo[4,5-c]quinoline-8-carbonitrile] the IC50 (LRRK2 wild type enzyme) was 2.47 nM.
For `C[C@@H]1C[C@H](n2c(CC(=O)NCC3CC3)nc3cnc4ccc(C(=O)N(C)C)cc4c32)CCO1` [Compound 144, 2-{[(cyclopropylmethyl)carbamoyl]methyl}-N,N-dimethyl-1-[(2R,4R)-2-methyloxan-4-yl]-1H-imidazo[4,5-c]quinoline-8-carboxamide], the IC50 (LRRK2 wild type enzyme) was > 1000 nM.
With `C[C@@H]1C[C@H](n2c(C3CC(=O)N(Cc4cccnc4)C3)nc3cnc4ccc(C#N)cc4c32)CCO1` (single isomer, unassigned) [Compound 31, 1-[(2R,4R)-2-methyloxan-4-yl]-2-[(3R*)-5-oxo-1-[(pyridin-3-yl)methyl]pyrrolidin-3-yl]-1H-imidazo[4,5-c]quinoline-8-carbonitrile] the IC50 (LRRK2 wild type enzyme) was 26.4 nM.
`C[C@@H]1C[C@H](n2c([C@@H]3CCN(C(=O)c4cnn(C)c4)C3)nc3cnc4ccc(C#N)cc4c32)CCO1` [Compound 130, 2-[(3R)-1-(1-methyl-1H-pyrazole-4-carbonyl)pyrrolidin-3-yl]-1-[(2R,4R)-2-methyloxan-4-yl]-1H-imidazo[4,5-c]quinoline-8-carbonitrile] showed an IC50 (LRRK2 wild type enzyme) of 6.71 nM.
With `Cn1cc(-n2c(CC(=O)NCC3CC3)nc3cnc4ccc(C#N)cc4c32)ccc1=O` [Compound 92, 2-[8-cyano-1-(1-methyl-6-oxo-1,6-dihydropyridin-3-yl)-1H-imidazo[4,5-c]quinolin-2-yl]-N-(cyclopropylmethyl)acetamide] the IC50 (LRRK2 wild type enzyme) was > 1000 nM.
In the case of `Cn1cc(-n2c(C3CC(=O)N(CC4CC4)C3)nc3cnc4ccc(C#N)cc4c32)ccc1=O` (stereo not shown) [Compound 137, 2-[1-(cyclopropylmethyl)-5-oxopyrrolidin-3-yl]-1-(1-methyl-6-oxo-1,6-dihydropyridin-3-yl)-1H-imidazo[4,5-c]quinoline-8-carbonitrile], the IC50 (LRRK2 wild type enzyme) is reported as > 1000 nM.
In the case of `Cc1cc(-n2c(CC(=O)NCC3CC3)nc3cnc4ccc(C#N)cc4c32)ccn1` [Compound 138, 2-[8-cyano-1-(2-methylpyridin-4-yl)-1H-imidazo[4,5-c]quinolin-2-yl]-N-(cyclopropylmethyl)acetamide], the IC50 (LRRK2 wild type enzyme) is reported as > 1000 nM.
